What was measured:
[1] = tested on: LPS-IFN—induced nitrite production; assay: MIF-dependent nitrite production in peritoneal macrophages (Greiss assay); assay type: cell-based, mouse; conditions: Mus musculus, Peritoneal macrophage, LPS 10 ng/ml + interferon-γ 10 units/ml, 24 h, read-out: % Inhibition of nitrite (± SD); for inhibition at 33 µM: compound 33 μM; for inhibition at 100 µM: compound 100 μM
Protocol: MIF is able to induce or facilitate the expression and release of a wide variety of pro-inflammatory and/or destructive molecules, including the release of macrophage nitric oxide (NO) ^(20). A compound with the ability to inhibit the cytokine or biological function of MIF might be expected to inhibit the activation of NO production by macrophages.
C57BL6/J male mice were injected intraperitoneally with 2 ml of thioglycolate. Three days later peritoneal macrophages were collected by lavaging the peritoneum with 3 ml of cold Hank's buffered saline solution. Cells from several mice were pooled, washed and re-suspended in DMEM supplemented with 5% FCS. Cells were plated in 96 well plastic tissue culture plates at 1×10^5 cells/well. Cells were treated in triplicate wells with compound or vehicle for 1 hour in a 5% CO2 incubator at 37° C. Cells were then treated with LPS (10 ng/ml) and recombinant human interferon-γ (10 units/ml) and incubated for 24 hours. After 24 hours, 50 μl of supernatant from each well was carefully removed and transferred to ELISA plates. The production of NO was measured by analysing the concentration of nitrite in culture supernatants, as measured by the Greiss assay ^(21). The results were calculated as the percentage inhibition of nitrite concentration in compound-treated cell culture supernatants, compared to that of vehicle-treated cells.

[2] = tested on: MIF-induced proliferation of mouse NIH 3T3 fibroblasts; assay: MIF-induced proliferation in mouse fibroblasts (3H-thymidine incorporation); assay type: cell-based; conditions: for Mean cpm (3H-thymidine incorporation): Compound (10×^10−6M) + MIF 50 ng/ml, nil 1087, MIF + vehicle 1452
Protocol: The activity of compounds was studied in a bioassay utilising MIF-induced proliferation of mouse NIH 3T3 fibroblasts. […] NIH 3T3 cells were propagated in DMEM/10% foetal calf serum (FCS). Prior to experimentation, cells were seeded at 10^4 cells/well in 96-well plates in DMEM/10% FCS for 18 hours. The media was then replaced with DMEM/0.1% FCS and the cells incubated for a further 18 hr. At time point −1 hr, culture medium was replaced with DMEM/0.1% FCS and cells were treated with a compound of the invention at a final concentration of 10 μM or vehicle. At time point zero, cells were treated with MIF at a final concentration of 50 ng/ml. At time point 6 hr the cells were pulsed with 1 µCi/well of ^3H-thymidine. At time point 24 hours, cells were harvested using a semi-automated cell harvester. The radioactivity incorporated into DNA was determined by liquid scintillation counting, with results expressed as ^3H-thymidine incorporation (cpm). Statistical significance was analysed using the Mann-Whitney test.

Compound	Mean cpm (3H-thymidine incorporation) [2] [cpm]	inhibition at 100 µM [1] [%]	further results
COC(=O)CCCC1(c2ccc(F)cc2)OCCO1 [Compound 9, Methyl 4-[2-(4-fluorophenyl)-1,3-dioxolan-2-yl]butanoate]	1071	–	inhibition at 1 µM ([1]; compound 1 μM): 16 ± 1%
OCCCCC1(c2ccc(F)cc2)OCCO1 [Compound 10, 4-[2-(4-Fluorophenyl)-1,3-dioxolan-2-yl]butan-1-ol]	1187	–	–
CCCCC1(c2ccc(Br)cc2)OCCO1 [Compound 11, 2-(4′-Bromophenyl)-2-butyl-1,3-dioxolane]	1245	–	inhibition at 33 µM [1]: 19 ± 1%
COc1ccc(-c2ccc(OC(F)(F)F)cc2)c(OC)n1 [Compound 14, 2,6-Dimethoxy-3-[4-(trifluoromethoxy)phenyl]pyridine]	1420	27 ± 3	–
c1csc(-c2ccc(C3NCCS3)cc2)c1 (stereo not shown) [Compound 15, 2-[4-(2-Thienyl)phenyl]-1,3-thiazolane]	955.6	12 ± 1	–
CCC1(c2ccc(OC)cc2)OCCO1 [Compound 16, 2-Ethyl-2-(4-methoxyphenyl)-1,3-dioxolane]	1335	–	–
Cc1ccc(C2(C)SCCS2)cc1 [Compound 18, 2-Methyl-2-(4-methylphenyl)-1,3-dithiolane]	–	40 ± 1	significant inhibition of MIF-induced proliferation ([2]; 10 μM, P<0.05, FIG. 9): significant inhibition
CCCCCCC1(c2ccc(C)cc2)OCCO1 [Compound 19, 2-Hexyl-2-(4-methylphenyl)-1,3-dioxolane]	1209	–	–
CC1(c2ccc(Cl)cc2)OCCCO1 [Compound 20, 2-(4-Chlorophenyl)-2-methyl-1,3-dioxane]	1214	–	–
CC1(c2ccc(Cl)cc2)OCCO1 [Compound 21, 2-(4-Chlorophenyl)-2-methyl-1,3-dioxolane]	1220	–	–
Cc1ccc(C2(C)OCCCO2)cc1 [Compound 22, 2-Methyl-2-(4-methylphenyl)-1,3-dioxane]	1310	–	–
Cc1ccc(C2(C)OCCO2)cc1 [Compound 23, 2-Methyl-2-(4-methylphenyl)-1,3-dioxolane]	1344	–	–
CC1(c2ccc(Cl)cc2)SCCS1 [Compound 24, 2-(4-Chlorophenyl)-2-methyl-1,3-dithiolane]	1318	–	inhibition at 33 µM [1]: 21 ± 2%
CC1(c2ccc([N+](=O)[O-])cc2)OCCO1 [Compound 25, 2-(4-Nitrophenyl)-2-methyl-1,3-dioxolane]	1117	–	inhibition at 33 µM [1]: 7 ± 1%
CC1(c2ccc([N+](=O)[O-])cc2)OCCCO1 [Compound 26, 2-(4-Nitrophenyl)-2-methyl-1,3-dioxane]	1141	–	–
COc1ccc(C2OCCS2)cc1 (stereo not shown) [Compound 27, 2-(4-Methoxyphenyl)-1,3-oxathiolane]	–	24 ± 1	–
COc1cc(C2OCCS2)cc(OC)c1OC (stereo not shown) [Compound 28, 2-(3,4,5-Trimethoxyphenyl)-1,3-oxathiolane]	1219	–	–

Compound	Mean cpm (3H-thymidine incorporation) [2] [cpm]	inhibition at 100 µM [1] [%]	further results
COc1cc(C2OCCS2)ccc1O (stereo not shown) [Compound 29, 2-Methoxy-4-(1,3-oxathiolan-2-yl)phenol]	1157	9 ± 1	–
N#Cc1ccc(C2OCCS2)cc1 (stereo not shown) [Compound 30, 4-(1,3-Oxathiolan-2-yl)benzonitrile]	–	31 ± 2	–
CCC1(c2ccc(Br)cc2)OCCS1 (stereo not shown) [Compound 31, 2-(4-Bromophenyl)-2-ethyl-1,3-oxathiolane]	–	35 ± 3	–
CC1CSC(c2ccc(C#N)cc2)O1 (stereo not shown) [Compound 32, 4-(5-Methyl-1,3-oxathiolan-2-yl)benzonitrile]	1196	14 ± 4	–
CCCCCCCCC1(c2ccc(O)cc2)OC(C)CS1 (stereo not shown) [Compound 34, 4-(5-Methyl-2-octyl-1,3-oxathiolan-2-yl)phenol]	–	24 ± 1	–
CC1CSC(c2ccc(F)c(C#N)c2)O1 (stereo not shown) [Compound 35, 2-Fluoro-5-(5-methyl-1,3-oxathiolan-2-yl)benzenecarbonitrile]	–	18 ± 2	–
COc1ccc(-c2ccc(OC(F)(F)F)cc2)cc1 [Compound 36, 4-Methoxy-4′-(trifluoromethoxy)-1,1′-biphenyl]	1033	57 ± 1	–
COc1ccc(-c2ccc(C(F)(F)F)cc2)c(OC)n1 [Compound 37, 2,6-Dimethoxy-3-[4-(trifluoromethyl)phenyl]pyridine]	1045	24 ± 1	–
CCCCC1(c2ccc(Br)cc2)OCCC(CCC)S1 (stereo not shown) [Compound 38, 2-(4-bromophenyl)-2-butyl-4-propyl-1,3-oxathiane]	–	35	–
CCCCC1(c2ccc(Br)cc2)OCCC(CCC)S1 (stereo not shown) [Compound 39, 2-(4-bromophenyl)-2-butyl-4-propyl-1,3-oxathiane]	956.1	–	–
N#Cc1ccc(C2OCCO2)cc1 [Compound 40, 4-(1,3-Dioxolan-2-yl)benzenecarbonitrile]	1143	7 ± 2	–
CCCCCCC1(c2cc(OC)cc(OC)c2)OCCO1 [Compound 41, 2-(3,5-Dimethoxyphenyl)-2-hexyl-1,3-dioxolane]	–	26 ± 1	–
CCC1(c2ccc(Cl)cc2)OCC(C)O1 (stereo not shown) [Compound 42, 2-(4-Chlorophenyl)-2-ethyl-4-methyl-1,3-dioxolane]	1168	–	–
CCC1(CC)COC(c2ccc(F)c(C#N)c2)OC1 [Compound 43, 5-(5,5-Diethyl-1,3-dioxan-2-yl)-2-fluorobenzenecarbonitrile]	1106	34 ± 1	–
Clc1ccc(C2=NCCO2)cc1 [Compound 44, 2-(4-Chlorophenyl)-4,5-dihydro-1,3-oxazole]	1294	–	–
Cc1ccc(C2=NCCO2)cc1 [Compound 45, 2-(4-Methylphenyl)-4,5-dihydro-1,3-oxazole]	–	7 ± 1	–
